This passage reports IC50 and Activity results from ChEMBL document CHEMBL1147074, “Reevaluation of telomerase inhibition by quadruplex ligands and their mechanisms of action” (Proc Natl Acad Sci U S A, 2007).

Test [1] addresses T1, Telomerase reverse transcriptase (Homo sapiens, UniProt O14746). The test can be described thus: Inhibition of human telomerase expressed in HEK293T cells treated before telomerase elongation by telomeric repeat amplification protocol assay. It is filed as cell-based. The following applies: hek-293t.
The target of test [2] is T1, Telomerase reverse transcriptase. The test can be described thus: Decrease in telomerase processivity assessed as decrease in telomerase elongation in presence of Telo3R primer by primer extension assay.
For test [3] the target is unchanged. The test can be described thus: Inhibition of human telomerase expressed in HEK293T cells in presence of primer (T2AG3)3 by primer extension assay. It is filed as cell-based. The conditions noted are these: hek-293t.
Test [4] shares this target. The test can be described thus: Inhibition of human telomerase expressed in HEK293T cells in presence of primer (T2AG3)4 by primer extension assay. Format: cell-based. The conditions noted are these: hek-293t.
Test [5] shares this target. The test can be described thus: Inhibition of human telomerase expressed in HEK293T cells in presence of primer TS by primer extension assay. Format: cell-based. The following applies: hek-293t.

Calls of active or inactive are those of the source. The rule behind the calls is not given here.

T1 sequence (O14746 whole entry): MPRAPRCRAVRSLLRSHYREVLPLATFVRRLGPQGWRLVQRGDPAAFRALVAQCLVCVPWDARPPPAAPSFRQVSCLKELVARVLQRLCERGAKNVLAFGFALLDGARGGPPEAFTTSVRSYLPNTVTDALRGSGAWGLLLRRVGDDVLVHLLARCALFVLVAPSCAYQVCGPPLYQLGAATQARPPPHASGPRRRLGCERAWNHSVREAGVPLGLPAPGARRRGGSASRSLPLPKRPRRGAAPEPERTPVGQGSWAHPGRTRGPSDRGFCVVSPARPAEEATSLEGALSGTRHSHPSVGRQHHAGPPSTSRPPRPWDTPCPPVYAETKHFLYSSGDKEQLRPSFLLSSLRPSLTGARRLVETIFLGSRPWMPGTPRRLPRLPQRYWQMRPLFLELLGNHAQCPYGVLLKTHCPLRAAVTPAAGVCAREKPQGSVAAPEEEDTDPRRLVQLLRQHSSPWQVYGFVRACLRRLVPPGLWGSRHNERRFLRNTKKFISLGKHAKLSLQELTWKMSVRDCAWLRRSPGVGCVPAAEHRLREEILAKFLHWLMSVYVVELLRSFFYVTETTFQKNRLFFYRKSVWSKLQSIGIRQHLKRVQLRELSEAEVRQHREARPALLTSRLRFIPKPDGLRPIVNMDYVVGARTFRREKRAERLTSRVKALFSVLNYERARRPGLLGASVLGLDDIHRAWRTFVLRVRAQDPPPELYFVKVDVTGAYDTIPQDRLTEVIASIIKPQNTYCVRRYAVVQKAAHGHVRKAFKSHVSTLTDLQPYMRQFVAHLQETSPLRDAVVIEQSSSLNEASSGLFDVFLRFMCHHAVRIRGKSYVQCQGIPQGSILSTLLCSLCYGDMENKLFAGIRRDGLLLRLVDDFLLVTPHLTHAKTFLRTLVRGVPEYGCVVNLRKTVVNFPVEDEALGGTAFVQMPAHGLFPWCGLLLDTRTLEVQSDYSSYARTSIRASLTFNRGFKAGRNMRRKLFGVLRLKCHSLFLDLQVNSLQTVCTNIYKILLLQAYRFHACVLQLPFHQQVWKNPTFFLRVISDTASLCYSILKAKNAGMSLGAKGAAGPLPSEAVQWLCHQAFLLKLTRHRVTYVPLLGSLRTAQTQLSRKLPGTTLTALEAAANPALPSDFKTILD

As usually defined, the IC50 is the point on the concentration scale where inhibition reaches its midpoint. As for `CN(C)c1ccc(Nc2c3ccc(NC(=O)CCN4CCCC4)cc3nc3cc(NC(=O)CCN4CCCC4)ccc23)cc1`, the 50% inhibitory concentration (IC50) is 45 nM in test [1] and 830 nM in test [3]. The outcome in test [2] was inactive.
Turning to `C[n+]1cc(NC(=O)c2ccc3ccc4ccc(C(=O)Nc5cc6ccccc6[n+](C)c5)nc4c3n2)cc2ccccc21`, in test [2], the outcome was Active.
For the molecule `C[n+]1cc(NC(=O)c2cccc(C(=O)Nc3cc4ccccc4[n+](C)c3)n2)cc2ccccc21`, the outcome in test [2] was Active.
Take `C[n+]1ccc(-c2c3nc(c(-c4cc[n+](C)cc4)c4ccc([nH]4)c(-c4cc[n+](C)cc4)c4ccc([nH]4)c(-c4cc[n+](C)cc4)c4nc2C=C4)C=C3)cc1`: in test [2], the result was inactive.
As for `Cc1oc2nc1-c1nc(co1)-c1nc(co1)-c1nc(co1)-c1nc(co1)-c1nc(co1)C1=NC(CS1)c1nc-2c(C)o1` (stereo not drawn) [TELOMESTATIN], the concentration for half-maximal inhibition (IC50) in test [4] worked out at 58 nM; in test [5], 1150 nM; in test [1], 0.64 nM; in test [3], 900 nM. Moreover, the outcome in test [2] was inactive.
As for `C[n+]1ccc(-c2c3nc(c(-c4cc[n+](C)cc4)c4ccc([nH]4)c(-c4cc[n+](C)cc4)c4nc(c(-c5cc[n+](C)cc5)c5ccc2[nH]5)C=C4)C=C3)cc1` [TMPYP4], the figures for the IC50 in test [1] and in test [3] were 550 nM and 710 nM, respectively.
